According to ChEMBL document CHEMBL3612037, “Design and synthesis of some new pyrazolyl-pyrazolines as potential anti-inflammatory, analgesic and antibacterial agents” (Eur J Med Chem, 2015):
Converted amounts (≈) assume the structure as drawn. The source made the active and inactive calls. The rule behind the calls is not given here.

Legend:
Staphylococcus aureus [1] = experiment: Antimicrobial activity against Staphylococcus aureus at 20 uL of 1 mg/ml by disc diffusion assay; assay type: functional; conditions: for zone of inhibition at 1000 µg/mL: read-out: IZ
Mus musculus [2] = experiment: Acute toxicity in Swiss mouse assessed as induction of depression incidence at 100 to 1000 mg/kg, po measured 48 hrs post dose; assay type: organism-based; conditions: in vivo
Rattus norvegicus [3] = experiment: Anti-inflammatory activity in Wistar rat assessed as inhibition of carrageenan-induced paw oedema at 50 mg/kg, po dosed 30 mins before carrageenan challenge and measured 120 mins post carrageenan challenge; assay type: functional
Rattus norvegicus [4] = experiment: Anti-inflammatory activity in Wistar rat assessed as inhibition of carrageenan-induced paw oedema at 50 mg/kg, po dosed 30 mins before carrageenan challenge and measured 60 mins post carrageenan challenge; assay type: functional
[5] = Acute toxicity in Swiss mouse at 100 to 1000 mg/kg, po measured 48 hrs post dose; assay type: organism-based; conditions: in vivo
Mus musculus [6] = experiment: Acute toxicity in Swiss mouse assessed as induction of diarrhoea incidence at 100 to 1000 mg/kg, po measured 48 hrs post dose; assay type: organism-based; conditions: in vivo
Rattus norvegicus [7] = experiment: Anti-inflammatory activity in Wistar rat assessed as inhibition of carrageenan-induced paw oedema at 50 mg/kg, po dosed 30 mins before carrageenan challenge and measured 30 mins post carrageenan challenge; assay type: functional
Rattus norvegicus [8] = experiment: Analgesic activity in Wistar rat assessed as tail flick latency time at 50 mg/kg, po measured 60 mins post dose by tail flick method (reference value: 3.47 +/- 0.1 secs); assay type: functional
Rattus norvegicus [9] = experiment: Analgesic activity in Wistar rat assessed as tail flick latency time at 50 mg/kg, po measured 30 mins post dose by tail flick method (reference value: 3.46 +/- 0.1 secs); assay type: functional
Escherichia coli = experiment: Antimicrobial activity against Escherichia coli at 20 uL of 1 mg/ml by disc diffusion assay; assay type: functional; conditions: for zone of inhibition at 1000 µg/mL: read-out: IZ
Rattus norvegicus [10] = experiment: Analgesic activity in Wistar rat assessed as tail flick latency time at 50 mg/kg, po measured 90 mins post dose by tail flick method (reference value: 3.7 +/- 0.1 secs); assay type: functional
Rattus norvegicus [11] = experiment: Analgesic activity in Wistar rat assessed as tail flick latency time at 50 mg/kg, po measured 0 mins post dose by tail flick method (reference value: 3.5 +/- 0.8 secs); assay type: functional
Aeromonas hydrophila = experiment: Antimicrobial activity against Aeromonas hydrophila at 20 uL of 1 mg/ml by disc diffusion assay; assay type: functional; conditions: for zone of inhibition at 1000 µg/mL: read-out: IZ
Staphylococcus [12] = experiment: Antimicrobial activity against Staphylococcus citreus at 20 uL of 1 mg/ml by disc diffusion assay; assay type: functional; conditions: for zone of inhibition at 1000 µg/mL: read-out: IZ
Staphylococcus aureus [13] = experiment: Antimicrobial activity against Staphylococcus aureus by agar dilution method; assay type: functional
Staphylococcus [14] = experiment: Antimicrobial activity against Staphylococcus citreus by agar dilution method; assay type: functional

Compound | zone of inhibition at 1000 µg/mL (Staphylococcus aureus [1]) | Activity (Mus musculus [2]) | inhibition in vivo at 50 mg/kg (Rattus norvegicus [3]) | inhibition in vivo at 50 mg/kg (Rattus norvegicus [4]) | LD50 at 48 h [5] | Activity (Mus musculus [6]) | inhibition in vivo at 50 mg/kg (Rattus norvegicus [7]) | Time (Rattus norvegicus [8]) | Time (Rattus norvegicus [9]) | inhibition zone (IZ) (Escherichia coli) | Time (Rattus norvegicus [10]) | Time (Rattus norvegicus [11]) | inhibition zone (IZ) (Aeromonas hydrophila) | zone of inhibition at 1000 µg/mL (Staphylococcus [12]) | MIC (Staphylococcus aureus [13]) | zone of inhibition at 1000 µg/mL (Escherichia coli) | zone of inhibition at 1000 µg/mL (Aeromonas hydrophila) | inhibition zone (IZ) (Staphylococcus aureus [1]) | inhibition zone (IZ) (Staphylococcus [12]) | MIC (Staphylococcus [14])
O=CN1N=C(c2ccc(Cl)cc2)CC1c1cn(-c2ccccc2)nc1-c1ccc(Cl)c(Cl)c1 (centres undefined) | 18 mm | Non-toxic | 57.8% | 51.1% | 500 mg/kg | Non-toxic | 35.1% | 4.7 s | 4.5 s | inactive | 4.3 s | 3 s | inactive | 21 mm |  |  |  |  |  | 
CCC(=O)N1N=C(c2ccc(Cl)cc2)CC1c1cn(-c2ccccc2)nc1-c1ccc(Cl)c(Cl)c1 (centres undefined) | 30 mm | Non-toxic | 68.8% | 61.1% | 500 mg/kg | Non-toxic | 47.9% | 6.8 s | 6.1 s |  | 5.4 s | 3.3 s |  | 18 mm | 300 µg/mL (≈ 573 µM) | 19 mm | 23 mm |  |  | 
CC(=O)N1N=C(c2ccc(Cl)cc2)CC1c1cn(-c2ccccc2)nc1-c1ccc(Cl)c(Cl)c1 (centres undefined) | 21 mm | Non-toxic | 66.4% | 57.2% | 500 mg/kg | Non-toxic | 45.7% | 5.9 s | 5.5 s | inactive | 5.1 s | 3.5 s |  | 13 mm |  |  | 19 mm |  |  | 
Cc1ccc(C2=NN(C=O)C(c3cn(-c4ccccc4)nc3-c3ccc(Cl)c(Cl)c3)C2)cc1 (centres undefined) |  | Non-toxic | 60.9% | 53.4% | 500 mg/kg | Non-toxic | 35.1% | 4.6 s | 4.7 s |  | 4.4 s | 3.4 s | inactive | 16 mm |  | 20 mm |  | inactive |  | 
Cc1ccc(C2=NNC(c3cn(-c4ccccc4)nc3-c3ccc(Cl)c(Cl)c3)C2)cc1 (centres undefined) | 19 mm | Non-toxic | 48.4% | 56.5% | 500 mg/kg | Non-toxic | 38.3% | 6.3 s | 5.9 s |  | 6.5 s | 3.6 s |  |  |  | 15 mm | 11 mm |  | inactive | 
O=[N+]([O-])c1ccc(N2N=C(c3ccc(F)cc3)CC2c2cn(-c3ccccc3)nc2-c2ccc(Cl)c(Cl)c2)cc1 (centres undefined) | 20 mm | Non-toxic | 65.6% | 60.3% | 500 mg/kg | Non-toxic | 45.7% | 5.7 s | 5.1 s | inactive | 5.2 s | 3.8 s | inactive | 21 mm |  |  |  |  |  | 
O=CN1N=C(c2ccc(F)cc2)CC1c1cn(-c2ccccc2)nc1-c1ccc(Cl)c(Cl)c1 (centres undefined) | 13 mm | Non-toxic | 60.9% | 56.5% | 500 mg/kg | Non-toxic | 37.2% | 6.4 s | 6.3 s |  | 6.6 s | 3.5 s |  | 18 mm |  | 12 mm | 10 mm |  |  | 
Cc1ccc(C2=NN(c3ccccc3)C(c3cn(-c4ccccc4)nc3-c3ccc(Cl)c(Cl)c3)C2)cc1 (centres undefined) | 15 mm | Non-toxic | 62.5% | 58.8% | 500 mg/kg | Non-toxic | 46.8% | 7.1 s | 6.7 s |  | 6.6 s | 3.3 s |  |  |  | 20 mm | 18 mm |  | inactive | 
CN[C@H](CC(C)C)C(=O)N[C@H]1C(=O)N[C@@H](CC(N)=O)C(=O)N[C@H]2C(=O)N[C@H]3C(=O)N[C@H](C(=O)N[C@H](C(=O)O)c4cc(O)cc(O)c4-c4cc3ccc4O)[C@H](O)c3ccc(c(Cl)c3)Oc3cc2cc(c3O[C@@H]2O[C@H](CO)[C@@H](O)[C@H](O)[C@H]2O[C@H]2C[C@](C)(N)[C@H](O)[C@H](C)O2)Oc2ccc(cc2Cl)[C@H]1O [VANCOMYCIN] |  |  |  |  |  |  |  |  |  |  |  |  |  |  | 500 µg/mL (≈ 345 µM) |  |  |  |  | 500 µg/mL (≈ 345 µM)
O=[N+]([O-])c1ccc(N2N=C(c3ccc(Cl)cc3)CC2c2cn(-c3ccccc3)nc2-c2ccc(Cl)c(Cl)c2)cc1 (centres undefined) | 22 mm | Non-toxic | 69.5% | 57.2% | 500 mg/kg | Non-toxic | 48.9% | 7 s | 6.9 s |  | 6.6 s | 3.4 s |  | 18 mm |  | 31 mm | 21 mm |  |  | 
CCC(=O)N1N=C(c2ccc(C)cc2)CC1c1cn(-c2ccccc2)nc1-c1ccc(Cl)c(Cl)c1 (centres undefined) | 24 mm | Non-toxic | 70.3% | 61.1% | 500 mg/kg | Non-toxic | 29.8% | 6.4 s | 5.3 s |  | 5.9 s | 3.3 s | inactive |  |  | 22 mm |  |  | inactive | 
CC(=O)N1N=C(c2ccc(F)cc2)CC1c1cn(-c2ccccc2)nc1-c1ccc(Cl)c(Cl)c1 (centres undefined) |  | Non-toxic | 72.7% | 59.5% | 500 mg/kg | Non-toxic | 45.7% | 6.5 s | 6.8 s |  | 6.6 s | 3.5 s |  |  |  | 12 mm | 19 mm | inactive | inactive | 
Cc1ccc(C2=NN(c3ccc([N+](=O)[O-])cc3)C(c3cn(-c4ccccc4)nc3-c3ccc(Cl)c(Cl)c3)C2)cc1 (centres undefined) | 21 mm | Non-toxic | 71.9% | 72.5% | 500 mg/kg | Non-toxic | 57.4% | 7.4 s | 7 s |  | 6.6 s | 3.4 s |  | 16 mm |  | 16 mm | 19 mm |  |  | 
Fc1ccc(C2=NNC(c3cn(-c4ccccc4)nc3-c3ccc(Cl)c(Cl)c3)C2)cc1 (centres undefined) | 14 mm | Non-toxic | 46.1% | 40.5% | 500 mg/kg | Non-toxic | 45.7% | 4.8 s | 4.5 s | inactive | 4.2 s | 3.1 s |  | 23 mm |  |  | 16 mm |  |  | 
CC(=O)N1N=C(c2ccc(C)cc2)CC1c1cn(-c2ccccc2)nc1-c1ccc(Cl)c(Cl)c1 (centres undefined) | 19 mm | Non-toxic | 70.3% | 59.5% | 500 mg/kg | Non-toxic | 27.6% | 5.5 s | 5.3 s |  | 5.5 s | 3.5 s | inactive |  |  | 18 mm |  |  | inactive | 
